# Columns and labels:
# cGAS [1] = molecular target: T1, cGAS (Homo sapiens, UniProt Q8N884); experiment: In vitro inhibition assay of cGAS activity (cGAMP production, RapidFire mass spectrometry); type: biochemical; set-up: Insert cDNA encoding full-length of human cGAS; His6; made in house; host or cells: E. coli BL21(DE3); conditions: 10 nM recombinant human cGAS, 60 nM 75-bp dsDNA, 50 μM ATP, 50 μM GTP, 3 hrs
# Method in brief: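 Reactions in 10 mM Tris-Cl pH 7.5, 5 mM MgCl2, 0.01% Triton X-100 contained serially diluted compound, 10 nM recombinant cGAS, dsDNA activator and 50 μM each of ATP and GTP, run 3 hrs at ambient temperature. After formic acid quench, cGAMP output was measured by mass spectrometry and percent inhibition versus log concentration was fitted for IC50.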
# cGAS [2] = molecular target: T1, cGAS; experiment: Cellular assay to measure cGAS activity (IFNb AlphaLISA in THP1 cells stimulated by RDG-Adenovirus-GFP); type: cell-based; set-up: host or cells: THP1 cells differentiated with PMA and stimulated with RDG-Adenovirus-GFP; conditions: PMA-differentiated THP1 cells, RDG-Adenovirus-GFP at 1000 MOI; inhibition of IFNb production as marker for cGAS activity
# Method in brief: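 The readout is secreted IFNb measured by AlphaLISA after overnight compound exposure. THP1 cells, differentiated with PMA for 24 h and rested overnight, were infected with RDG-Adenovirus-GFP (1000 MOI, 4 h) before compounds were added; IC50 came from a 4-parameter logistic fit of inhibition against log concentration.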
# T1 sequence (Q8N884 whole entry): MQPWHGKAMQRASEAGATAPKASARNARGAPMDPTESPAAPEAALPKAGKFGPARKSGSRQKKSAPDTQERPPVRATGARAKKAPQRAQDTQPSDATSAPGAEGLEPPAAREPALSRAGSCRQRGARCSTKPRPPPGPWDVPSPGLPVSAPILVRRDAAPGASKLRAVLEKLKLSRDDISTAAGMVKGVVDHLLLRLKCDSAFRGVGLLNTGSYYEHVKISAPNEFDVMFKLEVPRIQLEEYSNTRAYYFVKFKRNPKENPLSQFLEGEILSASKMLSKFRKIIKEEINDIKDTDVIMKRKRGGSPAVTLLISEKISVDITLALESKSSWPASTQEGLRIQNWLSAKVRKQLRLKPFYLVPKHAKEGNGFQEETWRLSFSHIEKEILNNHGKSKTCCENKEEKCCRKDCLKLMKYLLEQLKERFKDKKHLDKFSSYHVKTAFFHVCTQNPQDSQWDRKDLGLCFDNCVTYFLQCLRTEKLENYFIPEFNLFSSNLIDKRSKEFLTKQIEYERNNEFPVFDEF
smiles,measurement,setting,value
"Cn1c2c(c3c(CC#N)cc(Cl)c(Cl)c31)CC(=O)NC[C@H]2CCO (single isomer, unassigned) [Example 122]",IC50,cGAS [1],934 nM
same,IC50,cGAS [2],2940 nM
"Cn1c2c(c3c(CC#N)cc(Cl)c(Cl)c31)CC(=O)NC[C@H]2CCO (single isomer, unassigned) [Example 123]",IC50,cGAS [1],14.1 nM
same,IC50,cGAS [2],181 nM
"Cn1c2c(c3c(OCC#N)cc(Cl)c(Cl)c31)CC(=O)NC[C@H]2CCO (single isomer, unassigned) [Example 125]",IC50,cGAS [1],18 nM
same,IC50,cGAS [2],272 nM
"Cn1c2c(c3c(OCC#N)cc(Cl)c(Cl)c31)CC(=O)NC[C@H]2CCO (single isomer, unassigned) [Example 126]",IC50,cGAS [1],997 nM
same,IC50,cGAS [2],501 nM
"Cn1c2c(c3c(CC#N)cc(Cl)c(Cl)c31)CC(=O)NC[C@H]2CC(C)(C)O (single isomer, unassigned) [Example 129]",IC50,cGAS [1],1550 nM
same,IC50,cGAS [2],1320 nM
"Cn1c2c(c3c(CC#N)cc(Cl)c(Cl)c31)CC(=O)NC[C@H]2CC(C)(C)O (single isomer, unassigned) [Example 130]",IC50,cGAS [1],12.3 nM
same,IC50,cGAS [2],205 nM
"C[C@H]1C(=O)NCC(C)(C)c2[nH]c3c(Cl)c(Cl)cc(NC(=O)CO)c3c21 (single isomer, unassigned) [Example 132]",IC50,cGAS [1],≥ 39800 nM
same,IC50,cGAS [2],> 10000 nM
"C[C@H]1C(=O)NCC(C)(C)c2[nH]c3c(Cl)c(Cl)cc(NC(=O)CO)c3c21 (single isomer, unassigned) [Example 133]",IC50,cGAS [1],20 nM
same,IC50,cGAS [2],820 nM
"C[C@H]1C(=O)NCC(C)(C)c2c1c1c(NC(=O)CO)cc(Cl)c(Cl)c1n2C (single isomer, unassigned) [Example 134, (R)—N-(7,8-Dichloro-1,5,5,6-tetramethyl-2-oxo-1,2,3,4,5,6-hexahydroazepino[4,5-b]indol-10-yl)-2-hydroxyacetamide or (S)—N-(7,8-Dichloro-1,5,5,6-tetramethyl-2-oxo-1,2,3,4,5,6-hexahydroazepino[4,5-b]indol-10-yl)-2-hydroxyacetamide]",IC50,cGAS [1],17.5 nM
same,IC50,cGAS [2],787 nM
"C[C@H]1C(=O)NCC(C)(C)c2c1c1c(NC(=O)CO)cc(Cl)c(Cl)c1n2C (single isomer, unassigned) [Example 135, (R)—N-(7,8-Dichloro-1,5,5,6-tetramethyl-2-oxo-1,2,3,4,5,6-hexahydroazepino[4,5-b]indol-10-yl)-2-hydroxyacetamide or (S)—N-(7,8-Dichloro-1,5,5,6-tetramethyl-2-oxo-1,2,3,4,5,6-hexahydroazepino[4,5-b]indol-10-yl)-2-hydroxyacetamide]",IC50,cGAS [1],20200 nM
same,IC50,cGAS [2],≥ 10000 nM
"Cn1ncc(-c2cc(Cl)c(Cl)c3[nH]c4c(c23)CC(=O)NC[C@H]4CC(C)(F)F)n1 (single isomer, unassigned) [Example 136]",IC50,cGAS [1],16 nM
same,IC50,cGAS [2],1570 nM
"Cn1ncc(-c2cc(Cl)c(Cl)c3[nH]c4c(c23)CC(=O)NC[C@H]4CC(C)(F)F)n1 (single isomer, unassigned) [Example 137]",IC50,cGAS [1],683 nM
same,IC50,cGAS [2],> 10000 nM
"CC(F)(F)C[C@@H]1CNC(=O)Cc2c1[nH]c1c(Cl)c(Cl)cc(CC#N)c21 (single isomer, unassigned) [Example 138]",IC50,cGAS [1],8 nM
same,IC50,cGAS [2],431 nM
"CC(F)(F)C[C@@H]1CNC(=O)Cc2c1[nH]c1c(Cl)c(Cl)cc(CC#N)c21 (single isomer, unassigned) [Example 139]",IC50,cGAS [1],824 nM
same,IC50,cGAS [2],4610 nM
"C[C@H](O)C(=O)Nc1cc(Cl)c(Cl)c2c1c1c(n2C(F)F)CCNC(=O)[C@H]1C (single isomer, unassigned) [Example 142]",IC50,cGAS [1],29.6 nM
same,IC50,cGAS [2],293 nM
"C[C@H](O)C(=O)Nc1cc(Cl)c(Cl)c2c1c1c(n2C(F)F)CCNC(=O)[C@H]1C (single isomer, unassigned) [Example 143]",IC50,cGAS [1],1510 nM
same,IC50,cGAS [2],> 10000 nM
"C[C@H]1C(=O)NCCc2c1c1c(NC(=O)CO)cc(Cl)c(Cl)c1n2C(F)F (single isomer, unassigned) [Example 145, (R)—N-(7,8-Dichloro-6-(difluoromethyl)-1-methyl-2-oxo-1,2,3,4,5,6-hexahydroazepino[4,5-b]indol-10-yl)-2-hydroxyacetamide or (S)—N-(7,8-Dichloro-6-(difluoromethyl)-1-methyl-2-oxo-1,2,3,4,5,6-hexahydroazepino[4,5-b]indol-10-yl)-2-hydroxyacetamide]",IC50,cGAS [1],12.3 nM
same,IC50,cGAS [2],287 nM
"C[C@@H]1CNC(=O)Cc2c1[nH]c1c(Cl)c(Cl)cc(-c3cnn(C)n3)c21 (single isomer, unassigned) [Example 146]",IC50,cGAS [1],27.2 nM
same,IC50,cGAS [2],300 nM
"C[C@@H]1CNC(=O)Cc2c1[nH]c1c(Cl)c(Cl)cc(-c3cnn(C)n3)c21 (single isomer, unassigned) [Example 147]",IC50,cGAS [1],237 nM
same,IC50,cGAS [2],5170 nM
"C[C@@H]1CNC(=O)Cc2c1[nH]c1c(Cl)c(Cl)cc(OCC#N)c21 (single isomer, unassigned) [Example 148]",IC50,cGAS [1],41.4 nM
same,IC50,cGAS [2],1390 nM
"C[C@@H]1CNC(=O)Cc2c1[nH]c1c(Cl)c(Cl)cc(OCC#N)c21 (single isomer, unassigned) [Example 149]",IC50,cGAS [1],1560 nM
same,IC50,cGAS [2],3080 nM
"C[C@@H]1CNC(=O)[C@@H](C)c2c1[nH]c1c(Cl)c(Cl)cc(CC#N)c21 (single isomer, unassigned) [Example 150]",IC50,cGAS [1],25.9 nM
same,IC50,cGAS [2],2120 nM
"C[C@@H]1C(=O)NC[C@H](C)c2[nH]c3c(Cl)c(Cl)cc(CC#N)c3c21 (single isomer, unassigned) [Example 151]",IC50,cGAS [1],19.7 nM
same,IC50,cGAS [2],1770 nM
"C[C@@H]1C(=O)NC[C@H](C)c2[nH]c3c(Cl)c(Cl)cc(CC#N)c3c21 (single isomer, unassigned) [Example 152]",IC50,cGAS [1],948 nM
same,IC50,cGAS [2],5310 nM
"C[C@@H]1CNC(=O)[C@@H](C)c2c1[nH]c1c(Cl)c(Cl)cc(CC#N)c21 (single isomer, unassigned) [Example 153]",IC50,cGAS [1],2420 nM
same,IC50,cGAS [2],> 10000 nM
"C[C@@H]1CNC(=O)[C@@H](C)c2c1[nH]c1c(Cl)c(Cl)cc(NCCO)c21 (single isomer, unassigned) [Example 154]",IC50,cGAS [1],12.4 nM
same,IC50,cGAS [2],394 nM
"C[C@@H]1CNC(=O)[C@H](C)c2c1[nH]c1c(Cl)c(Cl)cc(NCCO)c21 (single isomer, unassigned) [Example 155]",IC50,cGAS [1],17.7 nM
same,IC50,cGAS [2],655 nM
"C[C@@H]1CNC(=O)[C@H](C)c2c1[nH]c1c(Cl)c(Cl)cc(NCCO)c21 (single isomer, unassigned) [Example 156]",IC50,cGAS [1],1810 nM
same,IC50,cGAS [2],> 10000 nM
"C[C@@H]1CNC(=O)[C@@H](C)c2c1[nH]c1c(Cl)c(Cl)cc(NCCO)c21 (single isomer, unassigned) [Example 157]",IC50,cGAS [1],6680 nM
same,IC50,cGAS [2],> 10000 nM
"C[C@@H]1CNC(=O)[C@@H](C)c2c1[nH]c1c(Cl)c(Cl)cc(NC(=O)CO)c21 (single isomer, unassigned) [Example 160, N-((1S,5R)-7,8-Dichloro-1,5-dimethyl-2-oxo-1,2,3,4,5,6-hexahydroazepino[4,5-b]indol-10-yl)-2-hydroxyacetamide or N-((1R,5S)-7,8-Dichloro-1,5-dimethyl-2-oxo-1,2,3,4,5,6-hexahydroazepino[4,5-b]indol-10-yl)-2-hydroxyacetamide]",IC50,cGAS [1],13 nM
same,IC50,cGAS [2],256 nM
"C[C@@H]1CNC(=O)[C@@H](C)c2c1[nH]c1c(Cl)c(Cl)cc(NC(=O)CO)c21 (single isomer, unassigned) [Example 161, N-((1S,5R)-7,8-Dichloro-1,5-dimethyl-2-oxo-1,2,3,4,5,6-hexahydroazepino[4,5-b]indol-10-yl)-2-hydroxyacetamide or N-((1R,5S)-7,8-Dichloro-1,5-dimethyl-2-oxo-1,2,3,4,5,6-hexahydroazepino[4,5-b]indol-10-yl)-2-hydroxyacetamide]",IC50,cGAS [1],3730 nM
same,IC50,cGAS [2],> 10000 nM
"COCC[C@@H]1CNC(=O)Cc2c1[nH]c1c(Cl)c(Cl)cc(-c3cnn(C)n3)c21 (single isomer, unassigned) [Example 167]",IC50,cGAS [1],12.8 nM
same,IC50,cGAS [2],624 nM
"COCC[C@H]1CNC(=O)Cc2c1[nH]c1c(Cl)c(Cl)cc(-c3cnn(C)n3)c21 (single isomer, unassigned) [Example 168]",IC50,cGAS [1],109 nM
same,IC50,cGAS [2],4600 nM
"COCC[C@H]1CNC(=O)[C@H](C)c2c1[nH]c1c(Cl)c(Cl)cc(NCCO)c21 (single isomer, unassigned) [Example 171]",IC50,cGAS [1],7.84 nM
same,IC50,cGAS [2],483 nM
"COCC[C@H]1CNC(=O)[C@H](C)c2c1[nH]c1c(Cl)c(Cl)cc(NCCO)c21 (single isomer, unassigned) [Example 172]",IC50,cGAS [1],1810 nM
same,IC50,cGAS [2],> 10000 nM
"COCC[C@H]1CNC(=O)[C@@H](C)c2c1[nH]c1c(Cl)c(Cl)cc(NCCO)c21 (single isomer, unassigned) [Example 173]",IC50,cGAS [1],14.7 nM
same,IC50,cGAS [2],1610 nM
"COCC[C@H]1CNC(=O)[C@@H](C)c2c1[nH]c1c(Cl)c(Cl)cc(NCCO)c21 (single isomer, unassigned) [Example 174]",IC50,cGAS [1],361 nM
same,IC50,cGAS [2],> 10000 nM
"Cn1ncc(-c2cc(Cl)c(Cl)c3[nH]c4c(c23)CC(=O)NC[C@H]4CCN2CCOCC2)n1 (single isomer, unassigned) [Example 175]",IC50,cGAS [1],54.6 nM
same,IC50,cGAS [2],1440 nM
